Read-outs that look alike come from different tables or passages of the source. Each block holds one molecule with its values, some of them ahead of it.
Test system: PMA-differentiated THP-1 cells
Test: IL-1β production in PMA-differentiated THP-1 cells stimulated with gramicidin (hTHP-1 assay containing 2% fetal bovine serum; Procedures 1 and 2)
Assay type: cell-based, human
Settings: 2% fetal bovine serum
In short: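 Human monocytic THP-1 cells, matured overnight with PMA at 20 ng/ml, are seeded in low-serum (2% FBS) RPMI. Test compounds, at final concentrations from 100 down to 0.0017 μM, precede gramicidin (5 μM, 2 h) by one hour. Released IL-1β is then determined by HTRF.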

[1] = Homo sapiens, THP-1, Table B2, class symbols, read-out: hTHP-1 IC50
[2] = Homo sapiens, THP-1, Table B4, class symbols, read-out: hTHP-1 IC50
[3] = Homo sapiens, THP-1, Table B1, class symbols, read-out: Average IC50 of compounds in hTHP-1 assay: hTHP-1 IC50
[4] = Table B1, class symbols, read-out: Average IC50 of compounds in hTHP-1 assay: hTHP-1 IC50
[5] = Homo sapiens, THP-1, Table B3, hTHP-1 assay, class symbols, read-out: IC50
[6] = Table B3, hTHP-1 assay, class symbols, read-out: IC50
[7] = Table B2, class symbols, read-out: hTHP-1 IC50
[8] = Homo sapiens, THP-1, Table B1, numeric bounds, read-out: Average IC50 of compounds in hTHP-1 assay: hTHP-1 IC50
[9] = Homo sapiens, THP-1, Table B2, numeric bounds, read-out: hTHP-1 IC50

- IC50 [1]: 200 to 1000 nM
Structure (SMILES): CC(C)(O)c1sc(S(N)(=O)=NC(=O)Nc2c3c(nc4c2CCC42CC2)CCC3)cc1F (stereo not drawn) [Compound 614, 4-Fluoro-5-(2-hydroxypropan-2-yl)-N′-((1′,5′,6′,7′-tetrahydro-2′H-spiro[cyclopropane-1,3′-dicyclopenta[b,e]pyridin]-8′-yl)carbamoyl)thiophene-2-sulfonimidamide]

- IC50 [2]: 200 to 1000 nM
Structure (SMILES): C[C@@H]1CCc2c1nc1c(c2NC(=O)N=S(N)(=O)c2nn(-c3ccccc3)cc2F)CCC1 (single isomer, unassigned) [Example 791, (R) or (S)-4-fluoro-N′-(((R)-3-methyl-1,2,3,5,6,7-hexahydrodicyclopenta[b,e]pyridin-8-yl)carbamoyl)-1-phenyl-1H-pyrazole-3-sulfonimidamide]

- IC50 [3]: 1000 to 5000 nM
Structure (SMILES): CN(C)Cc1ccc(S(N)(=O)=NC(=O)Nc2c3c(nc4c2CCC4(C)C)CCC3)cc1 (single isomer, unassigned) [Compound 125b, (R) or (S)-N′-((3,3-dimethyl-1,2,3,5,6,7-hexahydro-dicyclopenta[b,e]pyridin-8-yl)carbamoyl)-4-((dimethylamino)meth-yl)benzene-sulfonimidamide]

- IC50 [1]: 40 to 200 nM
Structure (SMILES): C[C@@H]1CCc2c1nc1c(c2NC(=O)N=S(N)(=O)c2nn(C(F)F)cc2F)CCC1 (stereo partly drawn) [Compound 718a]

- IC50 [4]: 5000 to 30000 nM
Structure (SMILES): CC(C)c1ncc(F)c(C(C)C)c1NC(=O)N=S(N)(=O)c1cnc(C(C)(C)O)s1 (single isomer, unassigned) [Compound 164b, (S) or (R)-N′-((5-fluoro-2,4-diisopropylpyridin-3-yl)carbamoyl)-2-(2-hydroxypropan-2-yl)thiazole-5-sulfonimidamide]

- IC50 [4]: 200 to 1000 nM
Structure (SMILES): CC1CCc2c1nc1c(c2NC(=O)N=S(N)(=O)c2cc(C(C)(C)O)cs2)CCC1C [Compound 131a, (R,S,S) and (R,R,R)-N′-((3,5-dimethyl-1,2,3,5,6,7-hexa-hydrodicyclo-penta[b,e]pyridin-8-yl)carbamoyl)-4-(2-hy-droxypropan-2-yl)thiophene-2-sulfonimidamide]

- IC50 [4]: 200 to 1000 nM
Structure (SMILES): CC(C)(O)c1nc(CO)c(S(N)(=O)=NC(=O)Nc2c3c(nc4c2CCC4)CCC3)s1 (single isomer, unassigned) [Compound 150b, (R) or (S)-N′-((1,2,3,5,6,7-hexahydrodicyclo-penta[b,e]pyridin-8-yl)carbamoyl)-4-(hydroxymethyl)-2-(2-hydroxypropan-2-l)thiazole-5-sulfonimidamide]

- IC50 [5]: 1000 to 5000 nM
Structure (SMILES): CCn1ccc(S(N)(=O)=NC(=O)Nc2c3c(nc(C4CC4)c2C2CC2)CCC3)n1 (stereo not drawn) [Example 632, N′-((2,3-dicyclopropyl-6,7-dihydro-5H-cyclopenta[b]pyridin-4-yl)carbamoyl)-1-ethyl-1H-pyrazole-3-sulfonimidamide]

- IC50 [6]: 40 to 200 nM
Structure (SMILES): CCn1cc(F)c(S(N)(=O)=NC(=O)Nc2c(C)c(C3CC3)nc3c2CCC3)n1 (single isomer, unassigned) [Example 713, (R) or (S)-N′-((2-cyclopropyl-3-methyl-6,7-dihydro-5H-cyclopenta[b]pyridin-4-yl)carbamoyl)-1-ethyl-4-fluoro-1H-pyrazole-3-sulfonimidamide]

- IC50 [5]: 200 to 1000 nM
Structure (SMILES): Cc1c(C2(F)CC2)nc2c(c1NC(=O)N=S(N)(=O)c1sc(C(C)(C)O)cc1F)CCC2 (single isomer, unassigned) [Example 685, (R) or (S)-3-fluoro-N′-((2-(1-fluorocyclopropyl)-3-methyl-6,7-dihydro-5H-cyclopenta [b]pyridin-4-yl)carbamoyl)-5-(2-hydroxypropan-2-yl) thiophene-2-sulfonimidamide]

- IC50 [7]: 40 to 200 nM
Structure (SMILES): CC1(C)CCc2c1nc1c(c2NC(=O)N=S(N)(=O)c2sc(C(C)(O)CO)cc2F)CCC1 (single isomer, unassigned) [Compound 640b, (S, R) and (R, R) or (R, S) and (S, S)-5-(1,2-Dihydroxypropan-2-yl)-N′-((3,3-dimethyl-1,2,3,5,6,7-hexahydrodicyclopenta [b,e]pyridin-8-yl)carbamoyl)-3-fluorotliophene-2-sulfonimidamide]

- IC50 (Table B4, class symbols, read-out: hTHP-1 IC50): 8 to 40 nM
Structure (SMILES): CC(C)n1cc(F)c(S(N)(=O)=NC(=O)Nc2c3c(nc4c2CC[C@H]4C)CCC3)n1 (single isomer, unassigned) [Example 757, (R) or (S)-4-fluoro-1-isopropyl-N′-(((R)-3-methyl-1,2,3,5,6,7-hexahydrodicyclopenta[b,e]pyridin-8-yl)carbamoyl)-1H-pyrazole-3-sulfonimidamide]

- IC50 [8]: > 30000 nM
Structure (SMILES): CN(C)Cc1ccc(S(N)(=O)=NC(=O)Nc2c3c(nc4c2CCC4(C)C)CCC3)cc1 (single isomer, unassigned) [Compound 125a, (S) or (R)-N′-((3,3-dimethyl-1,2,3,5,6,7-hexahydro-dicyclopenta[b,e]pyridin-8-yl)carbamoyl)-4-((dimethylamino)meth-yl)benzene-sulfonimidamide]

- IC50 [4]: 5000 to 30000 nM
Structure (SMILES): CC1CCc2c1nc1c(c2NC(=O)N=S(N)(=O)c2cc(C(C)(C)O)cs2)CCC1C (single isomer, unassigned) [Compound 131e, (S,S,S) or (S,R,S) and (S,S,R) or (S,R,R)-N′-((3,5-dimethyl-1,2,3,5,6,7-hexahydro-dicyclopenta[b,e]pyridin-8-yl)carbamoyl)-4-(2-hydroxypropan-2-yl)thio-phene-2-sulfonimidamide]

- IC50 [8]: > 28000 nM
Structure (SMILES): CC(C)(O)c1nc(S(N)(=O)=NC(=O)Nc2c3c(nc4c2CCC4)CCC3)cs1 (single isomer, unassigned) [Compound 154b, (S) or (R)-N′-((1,2,3,5,6,7-hexahydrodicyclo-penta[b,e]pyridin-8-yl)carbamoyl)-2-(2-hydroxypropan-2-yl)thiazole-4-sulfonimidamide]

- IC50 [7]: 200 to 1000 nM
Structure (SMILES): Cc1c(C(C)C)nc2c(c1NC(=O)N=S(N)(=O)c1cc(C(C)(C)O)cs1)CCC2 (single isomer, unassigned) [Compound 681b, (R) or (S)-4-(2-Hydroxypropan-2-yl)-N′-((2-isopropyl-3-methyl-6,7-dihydro-5H-cyclopenta[b]pyridin-4-yl)carbamoyl) thiophene-2-sulfonimidamide]

- IC50 (Table B1, numeric bounds, read-out: Average IC50 of compounds in hTHP-1 assay: hTHP-1 IC50): > 30000 nM
Structure (SMILES): CCc1cc(NC(=O)N=S(N)(=O)c2cnc(C(C)(C)O)s2)c2c(n1)CCC2 (single isomer, unassigned) [Compound 137b, (S) or (R)-N′-((2-ethyl-6,7-dihydro-5H-cyclopenta[b]pyridin-4-yl)carbamoyl)-2-(2-hydroxypropan-2-yl)thiazole-5-sulfonimidamide]

- IC50 [6]: 1000 to 5000 nM
Structure (SMILES): CCn1cc(F)c(S(N)(=O)=NC(=O)Nc2c3c(nc4c2CCC4(C)C)CCC3)n1 (single isomer, unassigned) [Example 716, (S) or (R)-N′-((3,3-dimethyl-1,2,3,5,6,7-hexahydrodicyclopenta[b,e]pyridin-8-yl)carbamoyl)-1-ethyl-4-fluoro-1H-pyrazole-3-sulfonimidamide]

- IC50 [5]: 40 to 200 nM
Structure (SMILES): CC1(C)CCc2c1nc1c(c2NC(=O)N=S(N)(=O)c2cnc(C(C)(CO)CO)s2)CCC1 (stereo not drawn) [Example 604, 2-(1,3-Dihydroxy-2-methylpropan-2-yl)-N′-((3,3-dimethyl-1,2,3,5,6,7-hexahydrodicyclopenta[b,e]pyridin-8-yl)carbamoyl)thiazole-5-sulfonimidamide]

- IC50 [1]: 200 to 1000 nM
Structure (SMILES): C[C@@H]1CCc2c1nc1c(c2NC(=O)N=S(N)(=O)c2ccn(C(C)(F)F)n2)CCC1 (stereo partly drawn) [Compound 723c]

- IC50 [9]: > 30000 nM
Structure (SMILES): Cc1c(C(C)(C)C)nc2c(c1NC(=O)N=S(N)(=O)c1cc(C(C)(C)O)cs1)CCC2 (single isomer, unassigned) [Compound 657a, (S) or (R)-N′-((2-(tert-butyl)-3-methyl-6,7-dihydro-5H-cyclopenta[b]pyridin-4-yl)carbamoyl)-4-(2-hydroxypropan-2-yl)thiophene-2-sulfonimidamide]

- IC50 [9]: > 30000 nM
Structure (SMILES): CC(C)(O)c1ncc(S(N)(=O)=NC(=O)Nc2cc(C(F)F)nc3c2CCC3)s1 (stereo not drawn) [Compound 708]

- IC50 [5]: 40 to 200 nM
Structure (SMILES): CCn1cc(F)c(S(N)(=O)=NC(=O)Nc2c3c(nc(C(F)(F)F)c2C2CC2)CCC3)n1 (stereo not drawn) [Compound 983]

- IC50 [2]: 8 to 40 nM
Structure (SMILES): CC(C)n1cc(F)c(S(N)(=O)=NC(=O)Nc2c3c(nc4c2CC[C@H]4C)CCC3)n1 (stereo partly drawn) [Example 739, 4-Fluoro-1-isopropyl-N′-(((R)-3-methyl-1,2,3,5,6,7-hexahydrodicyclopenta[b,e]pyridin-8-yl)carbamoyl)-1H-pyrazole-3-sulfonimidamide]

- IC50 [3]: 40 to 200 nM
Structure (SMILES): CC(C)c1ncc(F)c(C(C)C)c1NC(=O)N=S(N)(=O)c1cc(C(C)(C)O)cs1 (stereo not drawn) [Compound 148, N′-((5-fluoro-2,4-diisopropylpyridin-3-yl)carbamoyl)-4-(2-hydroxypropan-2-yl)thiophene-2-sulfonimidamide]

- IC50 [5]: 1000 to 5000 nM
Structure (SMILES): Cc1c(CC(F)(F)F)nc2c(c1NC(=O)N=S(N)(=O)c1nn(C(F)F)cc1F)CCC2 (single isomer, unassigned) [Example 723, (R) or (S)-1-(difluoromethyl)-4-fluoro-N′-((3-methyl-2-(2,2,2-trifluoroethyl)-6,7-dihydro-5H-cyclopenta[b]pyridin-4-yl)carbamoyl)-1H-pyrazole-3-sulfonimidamide]

- IC50 [7]: 200 to 1000 nM
Structure (SMILES): Cc1c(C(F)(F)F)nc2c(c1NC(=O)N=S(N)(=O)c1cnc(C(C)(O)CO)s1)CCC2 (single isomer, unassigned) [Compound 605c]
